In patent US11013740B2, “Histone deacetylase 6 selective inhibitors for the treatment of cisplatin-induced peripheral neuropathy” (REGENACY PHARMACEUTICALS, LLC, priority 2015, dated 2021):

What was measured:
Cox IV, SDHA and VDAC = experiment: Western blot of mitochondrial marker proteins in tibial nerves; assay type: in vivo; settings: cisplatin-treated mice, 11 injections of compound
Description: (§1) Tibial nerves retrieved from the XF24 assay plate were used for western blot analysis of levels of acetylated α-tubulin and mitochondrial proteins cytochrome c oxidase subunit IV (Cox IV), succinate dehydrogenase complex subunit A (SDHA) and voltage-dependent anion channel (VDAC). Tissues were homogenized in RIPA buffer (50 mM Tris-HCl, pH 7.5, 500 mM NaCl, 2.5 mM MgCl2, 1% NP-40, 10% glycerol) containing proteinase inhibitors by sonication and 10 μg of protein was separated by SDS/PAGE and transferred to PVDF membrane for immunoblot analyses. The membranes were blocked with 5% non-fat dry milk in PBST (phosphate-buffered saline containing 0.1% Tween 20) and probed with primary antibodies recognizing acetylated lysine (Rabbit monoclonal; Abcam, Cambridge, United Kingdom), α-tubulin (Rabbit polyclonal; Cell Signaling Technology, Danvers, Mass.), Cox IV (Mouse monoclonal; Life Technologies, Carlsbad, Calif.), SDHA (Rabbit polyclonal; Cell Signaling Technology, Danvers, Mass.) and VDAC (Rabbit polyclonal; Cell Signaling Technology, Danvers, Mass.) followed by HRP-conjugated anti-mouse, anti-rabbit, or anti-β-actin antibodies (Jackson Laboratory, Bar Harbor, Me.). […] The images were acquired using ImageQuant LAS 4000 (GE Healthcare Life Sciences, Little Chalfont, United Kingdom) and densitometrically analyzed using Image J software.

general activity = experiment: Locomotor activity (LMA) test; assay type: in vivo, mice; settings: in combination with cisplatin
Description: (§2) To quantify signs of cisplatin-induced pain, the von Frey test was used (see below) which measures the decrease in threshold to induce a withdrawal response to a mechanical stimulus (hyperalgesia, one of the characteristics of CIPN). To assess cisplatin-induced numbness, the adhesive removal test (ART) was used. The time it took for the mouse to have a behavioral response to the patch (i.e. shaking or attempted removal) was recorded as a measure of sensory deficit or numbness. To determine if behavioral changes were due to altered general activity or motor function, the locomotor activity (LMA) test and the rotarod test was used. For LMA mice were placed in an open-field testing cage and movement was measured for 5 minutes. For the rotarod, mice were trained for two days and then tested on the rotarod (with increasing speeds) for 5 minutes. Time on the rotarod was recorded.

IENF density = experiment: Intra-epidermal nerve fiber (IENF) density in hind paw biopsies; assay type: in vivo, mice
Source text: For quantification of IENFs, biopsies from the plantar surface of the hind paws were collected after 3 doses or 11 doses of compound 001 or vehicle and processed as described previously (Qi-Liang Mao-Ying A K, et al. The anti-diabetic drug metformin protects against chemotherapy-induced peripheral neuropathy in a mouse model. Clinical Cancer Research. 2014); Krukowski K, et al. Prevention of chemotherapy-induced peripheral neuropathy by the small-molecule inhibitor pifithrin-mu. Pain. 2015; 156(11):2184-92). In brief, biopsies were fixed in Zamboni's fixative, cryoprotected in 20% sucrose and then frozen in Optimal Cutting Temperature compound (Sakura Finetek USA, Inc., Torrance, Calif.). 25-μm frozen sections were incubated with antibodies against the pan neuronal marker PGP9.5 (Rabbit; AbD Serotec, Oxford, United Kingdom) and Collagen IV (Goat; Southern Biotech, Birmingham, Ala.) followed by Alexa-594 donkey anti-rabbit (Life Technologies, Carlsbad, Calif.) and Alexa-488 donkey anti-goat (Invitrogen, Grand Island, N.Y.). Three randomly chosen sections from each mouse were imaged and quantified under a Leica SPE confocal microscope (Leica Microsystems, Buffalo Grove, Ill.). Nerve fibers that crossed the collagen-stained dermal/epidermal junction into the epidermis were counted and IENF density was determined as the total number of fibers/length of epidermis (IENFs/mm).

acetylated α-tubulin = experiment: Western blot of acetylated α-tubulin in tibial nerves; assay type: in vivo; settings: saline+compound and cisplatin+compound treated mice, 11 doses
Description: as §1

[1] = tested on: cisplatin-induced mechanical hyperalgesia; experiment: Von Frey test for mechanical hyperalgesia in cisplatin-treated mice; assay type: in vivo; settings: for effect on existing cisplatin-induced mechanical hyperalgesia: 7 daily doses starting 3 days after last cisplatin dose
Description: Adult male C57/Bl6J mice received cisplatin intraperitoneally (i.p.) (2.3 mg/kg) daily for five days, followed by five days rest and a second round of five days of cisplatin treatment. Three days after the last dose of cisplatin, mice received the HDAC6 inhibitor, compound 001, a compound of Formula (I), i.p. for seven to fourteen days at 3 mg/kg or 10 mg/kg.
as §2
Allodynic response to tactile stimulation is assessed using the Von Frey apparatus (Touch Test®).
The animal is placed in an enclosure and positioned on a metal mesh surface, but allowed to move freely. The animals' cabins are covered with red cellophane to diminish environmental disturbances. The test begins after a cessation of exploratory behavior. The set of Von Frey monofilaments provide an approximate logarithmic scale of actual force and a linear scale of perceived intensity.
The operating principle: when the tip of a fiber of given length and diameter is pressed against the skin at right angles, the force of application increases as long as the researcher continues to advance the probe until the fiber bends. After the fiber bends, the probe continues to advance, causing the fiber to bend more, but without additional force being applied.
The Touch Test™ Sensory Evaluator can be used on the plantar surfaces of the rat's foot. The animal indicates sensation by pulling back its paw. The minimal force needed to elevate the withdrawal reflex is considered/designated as the value of reference. In order to achieve paw withdrawal, the pressure applied is sometimes greater than 60 g, often requiring the researcher to apply enough pressure with the Von Frey filament to actually lift the paw of the naive animal. Decreases in force needed to induce withdrawal are indicative of hyperalgesia, as the force applied is a non-painful stimulus under normal conditions.
Cisplatin (TEVA Pharmaceuticals, North Wales, Pa.) was diluted in sterile saline and administered intraperitoneally (i.p.) at a dose of 2.3 mg/kg daily for 5 days, followed by 5 days of rest, and a second round of 5 doses for a total cumulative dose of 23 mg/kg cisplatin. It was shown that this dosing schedule induces mechanical hyperalgesia in mice (Qi-Liang Mao-Ying A K, et al. The anti-diabetic drug metformin protects against chemotherapy-induced peripheral neuropathy in a mouse model. Clinical Cancer Research. 2014; Krukowski K, et al. Prevention of chemotherapy-induced peripheral neuropathy by the small-molecule inhibitor pifithrin-mu. Pain. 2015; 156(11):2184-92). HDAC6 inhibitor, compound 001, (Acetylon Pharmaceuticals, Boston, Mass.) was dissolved in 20% 2-hydroxypropyl-β-cyclodextrin+0.5% hydroxypropyl methylcellulose (Sigma-Aldrich, St. Louis, Mo.) in water and administered i.p. at a dose of 10 mg/kg or 3 mg/kg. […]

motor function = experiment: Rotarod test; assay type: in vivo, mice; settings: in combination with cisplatin
Description: as §2

general activity (locomotor activity) (general activity): no effect on general activity
Structure (SMILES): O=C(NO)c1cnc(NC2(c3ccccc3)CCC(F)(F)CC2)nc1 [compound 001]
Cox IV level in tibial nerve (Cox IV, SDHA and VDAC): normalized Cox IV levels in the tibial nerve | IENF density, prolonged regimen (IENF density; 2 cycles of cisplatin and 11 doses of compound): completely reversed the cisplatin-induced loss of IENFs | IENF density, short-term treatment (IENF density; cisplatin-treated mice, short-term treatment (3 doses)): did not have any effect on IENF density | α-tubulin acetylation in tibial nerves (acetylated α-tubulin): increased α-tubulin acetylation | effect on existing cisplatin-induced mechanical hyperalgesia ([1]; 3 mg/kg i.p.): did not | effect of prolonged treatment on mechanical hyperalgesia ([1]; 10 mg/kg for two consecutive weeks starting 3 days after last cisplatin dose): complete and sustained recovery from mechanical hyperalgesia | duration of beneficial effect of prolonged regimen ([1]; 10 mg/kg for two consecutive weeks, followed to experiment termination): maintained until at least one month after the last dose | effect on existing cisplatin-induced mechanical hyperalgesia ([1]; 10 mg/kg i.p.): effectively relieved cisplatin-induced mechanical hyperalgesia | time after first dose at which effect on mechanical allodynia was first detected ([1]; 10 mg/kg i.p., cisplatin-treated mice): 24 h | mechanical sensitivity, compound alone ([1]; 10 mg/kg, without cisplatin): did not alter mechanical sensitivity | time after last dose until which beneficial effect on mechanical hyperalgesia was maintained ([1]; 7 daily doses of 10 mg/kg): 4 days | prevention of development of mechanical hyperalgesia ([1]; administered i.p. one hour prior to each dose of cisplatin): prevented the development of mechanical hyperalgesia | effect of second round of treatment on mechanical hyperalgesia ([1]; second round of 7 daily injections, 10 mg/kg, after 7 days rest): transiently reversed cisplatin-induced mechanical hyperalgesia | motor function (rotarod) (motor function): no effect
